Assay results published in ChEMBL document CHEMBL4680256, “Indole chalcones: Design, synthesis, in vitro and in silico evaluation against Mycobacterium tuberculosis” (Eur J Med Chem, 2020).
Values after ≈ are worked out from the molar mass of the structure shown.

How the values were obtained:
[1] = test system: Mycobacterium tuberculosis; test: Antimycobacterial activity against Mycobacterium tuberculosis H37Rv assessed as inhibition of bacterial growth at 100 ug/ml preincubated for 72 hrs followed by phAE202 and Cacl2 addition and measured after 4 hrs by luciferase reporter mycobacterio-phage assay; type: functional; conditions: time 76 hrs
[2] = test system: Mycobacterium tuberculosis; test: Antimycobacterial activity against Mycobacterium tuberculosis H37Rv assessed as reduction in bacterial growth preincubated for 72 hrs followed by phAE202 and Cacl2 addition and measured after 4 hrs by luciferase reporter mycobacterio-phage assay; type: functional; conditions: time 76 hrs
[3] = test system: Mycobacterium tuberculosis; test: Antimycobacterial activity against Mycobacterium tuberculosis H37Rv assessed as inhibition of bacterial growth at 50 ug/ml preincubated for 72 hrs followed by phAE202 and Cacl2 addition and measured after 4 hrs by luciferase reporter mycobacterio-phage assay; type: functional; conditions: time 76 hrs
[4] = Cytotoxicity against mouse BA/F3 cells assessed as cell viability at 10 to 50 ug/ml incubated for 24 hrs by WST-1 assay relative to control; type: cell-based, BaF3; conditions: at 10 to 50 µg/mL, dose 10-50 µg/ml, read-out: Activity
[5] = Cytotoxicity against human Mo7e cells assessed as cell viability at 10 to 50 ug/ml incubated for 24 hrs by WST-1 assay relative to control; type: cell-based, M07E; conditions: at 10 to 50 µg/mL, dose 10-50 µg/ml, read-out: Activity

| Structure (SMILES) | inhibition at 100 µg/mL [1] [%] | MIC [2] [µM] | inhibition at 50 µg/mL [3] [%] | viability at 24 h [4] [%] | viability at 24 h [5] [%] |
| --- | --- | --- | --- | --- | --- |
| O=C(/C=C/c1c[nH]c2ccccc12)N1CCN(c2ccc(O)cc2)CC1 | 76.4 | 143 (≈ 49.7 µg/mL) | 63.8 |  |  |
| O=C(/C=C/c1c[nH]c2ccccc12)c1ccncc1 | 64.2 | 201 (≈ 49.9 µg/mL) | 58.4 |  |  |
| O=C(/C=C/c1c[nH]c2ccccc12)c1ccc(-c2cccs2)cc1 | 87.2 | 197 (≈ 64.9 µg/mL) | 82 | > 60 | > 80 |
| O=C1CCC/C1=C\c1cc2ccccc2[nH]1 | 86.3 | 236 (≈ 49.9 µg/mL) | 84.3 | > 60 | > 80 |
| O=C(/C=C/c1c[nH]c2ccccc12)c1ccc(-c2ccc[nH]2)cc1 | 49.4 | > 423 | 26.4 |  |  |
| O=C(/C=C/c1c[nH]c2ccccc12)c1ccccn1 | 62 | 201 (≈ 49.9 µg/mL) | 53.1 |  |  |
| O=C(/C=C/c1c[nH]c2ccccc12)c1ccc(C(F)(F)F)cc1 | 31.2 | > 317 | 29.7 |  |  |
| O=C(/C=C/c1c[nH]c2ccccc12)c1cccnc1 | 70.7 | 201 (≈ 49.9 µg/mL) | 63.1 |  |  |
| O=C(/C=C/c1c[nH]c2ccccc12)c1cccc(C(F)(F)F)c1 | 26.3 | > 317 | 24.5 |  |  |
| O=C(/C=C/c1c[nH]c2ccccc12)c1ccc(-c2ccoc2)cc1 | 87.7 | 210 (≈ 65.8 µg/mL) | 85.3 | > 60 | > 80 |
| O=C(/C=C/c1c[nH]c2ccccc12)c1ccc(-n2ccnc2)cc1 | 70.7 | 159 (≈ 49.8 µg/mL) | 63.6 |  |  |
| O=C(/C=C/c1c[nH]c2ccccc12)c1ccc(Cl)cc1 | 50.6 | > 355 | 48.6 |  |  |
| O=C(/C=C/c1c[nH]c2ccccc12)c1ccc(F)cc1 | 54.2 | 188 (≈ 49.9 µg/mL) | 50.3 |  |  |
| O=C(/C=C/c1c[nH]c2ccccc12)c1ccc(Br)cc1 | 65.9 | 155 (≈ 50.6 µg/mL) | 64.9 |  |  |
| O=C(/C=C/c1c[nH]c2ccccc12)c1ccc(O)cc1 | 55.1 | 189 (≈ 49.8 µg/mL) | 54.9 |  |  |
| O=C(/C=C/c1c[nH]c2ccccc12)c1ccc(-c2ccsc2)cc1 | 63.4 | 197 (≈ 64.9 µg/mL) | 62 |  |  |
| Nc1cccc(C(=O)/C=C/c2c[nH]c3ccccc23)c1 | 48.7 | > 381 | 37.2 |  |  |
| O=C(/C=C/c1c[nH]c2ccccc12)c1cccc([N+](=O)[O-])c1 | 51.7 | > 342 | 48.7 |  |  |
| O=C(/C=C/c1c[nH]c2ccccc12)c1ccc2ccccc2c1 | 41.8 | > 336 | 30.8 |  |  |
| NNC(=O)c1ccncc1 [ISONIAZID] | > 99 | 1.4 (≈ 0.192 µg/mL) |  |  |  |
| O=C(/C=C/c1c[nH]c2ccccc12)c1ccc(Cl)cc1Cl | 55.2 | 164 (≈ 51.9 µg/mL) | 52.3 |  |  |
| COc1cccc(C(=O)/C=C/c2c[nH]c3ccccc23)c1 | 36.7 | > 360 | 27.1 |  |  |
| O=C(/C=C/c1c[nH]c2ccccc12)c1ccc2c(c1)OCO2 | 75.7 | 171 (≈ 49.8 µg/mL) | 66.8 |  |  |
| Cc1ccc(C(=O)/C=C/c2c[nH]c3ccccc23)cc1 | 50.9 | > 382 | 41.7 |  |  |
| O=C1CCCC/C1=C\c1cc2ccccc2[nH]1 | 62 | 221 (≈ 49.8 µg/mL) | 53.1 |  |  |
| COc1ccc(C(=O)/C=C/c2c[nH]c3ccccc23)cc1OC | 31.7 | > 325 | 27.1 |  |  |
| CO[C@H]1/C=C/O[C@@]2(C)Oc3c(C)c(O)c4c(O)c(c(/C=N/N5CCN(C)CC5)c(O)c4c3C2=O)NC(=O)/C(C)=C\C=C\[C@H](C)[C@H](O)[C@@H](C)[C@@H](O)[C@@H](C)[C@H](OC(C)=O)[C@@H]1C [RIFAMPIN] | > 99 | 2.4 (≈ 1.98 µg/mL) |  |  |  |
